# Assays:
# [1] = Colonogenic assay for long term cell killing; assay type: cell-based; conditions: ZN-6 at 10 nM; exposure up to 60 minutes, washout, crystal violet staining after 14-day incubation
# Procedure: Cell growth inhibition for 3 days is an effect for a short term treatment. A colonogenic assay was used for the long term cell killing effect. One thousand cells were seeded in each well in 6-well plates. On the second day the cells were exposed with the dilutions of the compound for up to 60 minutes. After that the compound was washed away and the cells were refed with fresh medium without the compound. The colonies were visualized by crystal violet staining after 14-day incubation.
# [2] = biological target: T1, mutant p53-R175H protein (Homo sapiens, UniProt P04637, R175H); assay: Mutant p53 refolding assay (immunofluorescent staining with PAB1620 and PAB240); assay type: cell-based; conditions: p53-R175H cells (e.g. TOV 112D), treated 6 hours; data not shown
# T1 construct: endogenous in cells; host or cells: TOV 112D (p53-R175H cells)
# Procedure: An immunofluorescent staining using p53 conformation specific antibodies was used to determine if a test compound could induce the mutant p53 protein refolding to a wildtype conformation. The p53-R175H cells (e.g. TOV 112D) cultured in DMEM+10% FBS were treated with a test compound for 6 hours, then fixed and stained with the antibodies PAB1620 (recognizing WT conformation) and PAB240 (recognizing misfolded/unfolded conformation) respectively.
# [3] = system: p53 target genes PUMA and GDF15 in p53-R175H cells; assay: Mutant p53 transcriptional reactivation assay by qRT-PCR of p53 target genes; assay type: cell-based
# Procedure: p53 is a transcription factor. The reactivation of mutant p53 can be detected by regulation of the p53 target genes using quantitative reverse transcription PCR (qRT-PCR). The p53-R175H cells were treated with the compound for 6 hours and 24 hours followed by qRT-PCR to analyze the gene expression regulation. The two p53 target genes in this assay were PUMA and GDF15. For ZN-6, the expression levels were induced for 18-fold and 53-fold respectively (in parental cells). To double check the p53 dependence of the effect, the same assay applied to the p53 knockout cell line (KO, done by CRISPR-cas9 technology) and the p53 transient knockdown cells (KD, using siRNA knockdown). The PUMA induction was only 2× and 5× and GDF15 induction was only 1× and 5× in KO and KD cells, respectively (See FIG. 1).
# [4] = Solubility of zinc complexes; assay type: physicochemical
# [5] = system: human tumor cell lines with different p53 status; assay: Cell growth inhibition assay (Calcein AM); assay type: cell-based; conditions: for EC50: cell growth, Calcein AM, incubation for 3 days, cell line not stated; for Fold (ZN-1/compound) / Fold (compound/ZN-1): ratio of EC50s
# Procedure: Cell growth inhibition assay using human tumor cell lines with different p53 status (wildtype, null, p53-R175H or other zinc binding deficient mutants) were employed to determine if a test compound functions as a zinc metallochaperone to restore wildtype p53 functions. The cell growth inhibition assay was performed by Calcein AM assay (Trevigen). Five thousand cells per well were cultured in 96-well plate to reach the 50% confluence on the second day when treated with serial dilutions of the compounds. Growth was measured by Calcein AM assay (Trevigen) and Victor Plate reader instrument (PerkinElmer) after incubation for 3 days.
# [6] = p53 knockout cell line (KO, CRISPR-cas9)
# [7] = p53 transient knockdown cells (KD, siRNA)
# [8] = parental p53-R175H cells, 6 hours and 24 hours treatment
Structure (SMILES),Earliest exposure time that showed effect on colony formation [1],Refolding of mutant p53 to wildtype conformation [2],"GDF15 induction [3, 6]","PUMA induction [3, 6]","GDF15 induction [3, 7]","PUMA induction [3, 7]","GDF15 expression induction [3, 8]","PUMA expression induction [3, 8]","Solubility in 5% EtOH, 4% Tween80, 4% Kolliphor, 87% water ([4]; 5% EtOH, 4% Tween80, 4% Kolliphor, 87% water)","Solubility in 10% EtOH, 10% captisol, 80% water ([4]; 10% EtOH, 10% captisol, 80% water)","Solubility in 50% EtOH 50% H2O ([4]; 50% EtOH, 50% H2O)",Solubility in DMSO [4],Solubility in EtOH [4],EC50 [5],Fold (ZN-1/compound) [5],Fold (compound/ZN-1) [5]
"C/C(=N\NC(=S)N1CCC1)c1ccccn1 [ZMC1, reference compound]",15 min,change the mutant p53-R175H protein from mutant conformation to WT conformation,–,–,–,–,–,–,–,–,–,–,–,–,–,–
"COCCOCc1cccnc1/C(C)=N/NC(=S)N(C)C.COCCOCc1cccnc1/C(C)=N/NC(=S)N(C)C.[Zn] [ZN-6, Zn[(E)-2-(1-(3-((2-methoxyethoxy)methyl)pyridin-2-yl)ethylidene)-N,N-dimethylhydrazine-1-carbothioamide]2]",15 min,change the mutant p53-R175H protein from mutant conformation to WT conformation,1 ×,2 ×,5 ×,5 ×,53 fold,18 fold,1000 µg/mL,1000 µg/mL,>5000 µg/mL,>10000 µg/mL,>10000 µg/mL,5.41 nM,0.5,2.0
"C/C(=N\NC(=S)N(C)C)c1ncccc1CN1CCOCC1.C/C(=N\NC(=S)N(C)C)c1ncccc1CN1CCOCC1.[Zn] [ZN-7, Zn[(E)-N,N-dimethyl-2-(1-(3-(morpholinomethyl)pyridin-2-yl)ethylidene)hydrazine-1-carbothioamide]2]",–,–,–,–,–,–,–,–,–,–,–,>5000 µg/mL,1000 to 2000 µg/mL,8.36 nM,0.3,3.1
"COCCOCc1ccnc(/C(C)=N/NC(=S)N(C)C)c1.COCCOCc1ccnc(/C(C)=N/NC(=S)N(C)C)c1.[Zn] [ZN-12, Zn[(E)-2-(1-(4-((2-methoxyethoxy)methyl)pyridin-2-yl)ethylidene)-N,N-dimethylhydrazine-1-carbothioamide]2]",–,–,–,–,–,–,–,–,–,–,–,–,–,2.52 nM,1.1,0.9
